Like-named read-outs stand apart in the source and are kept apart here.
Tests used:
[1] = biological target: GDP-bound KRAS wild-type protein (Homo sapiens, UniProt P01116); assay: Binding to KRAS by surface plasmon resonance (SPR), Single Cycle Kinetics; conditions: GDP-bound KRAS wild-type protein, read-out: KRAS KD
[2] = biological target: GDP-bound HRAS wild-type protein (Homo sapiens, UniProt P01112); assay: Binding to HRAS by surface plasmon resonance (SPR), Single Cycle Kinetics; conditions: for HRAS/KRAS (ratio of KD value for HRAS to KD value for KRAS): GDP-bound HRAS wild-type protein vs GDP-bound KRAS wild-type protein; for HRAS/KRAS (ratio of KD value with respect to GDP-bound HRAS wild-type protein to KD value with respect to KRAS): SPR KD ratio HRAS/KRAS, class symbols
[3] = system: human lung cancer strain NCI-H441;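 further: cell proliferation inhibition after four days measured by CellTiter-Glo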
[4] = biological target: GDP-bound NRAS wild-type protein (Homo sapiens, UniProt P01111); assay: Binding to NRAS by surface plasmon resonance (SPR), Single Cycle Kinetics; conditions: for NRAS/KRAS (ratio of KD value for NRAS to KD value for KRAS): GDP-bound NRAS wild-type protein vs GDP-bound KRAS wild-type protein; for NRAS/KRAS (ratio of KD value with respect to GDP-bound NRAS wild-type protein to KD value with respect to KRAS): SPR KD ratio NRAS/KRAS, class symbols
[5] = SPR, Single Cycle Kinetics, 1:1 binding model
[6] = SPR Single Cycle Kinetics, 1:1 binding model

Chain of GDP-bound NRAS wild-type protein (P01111 whole entry): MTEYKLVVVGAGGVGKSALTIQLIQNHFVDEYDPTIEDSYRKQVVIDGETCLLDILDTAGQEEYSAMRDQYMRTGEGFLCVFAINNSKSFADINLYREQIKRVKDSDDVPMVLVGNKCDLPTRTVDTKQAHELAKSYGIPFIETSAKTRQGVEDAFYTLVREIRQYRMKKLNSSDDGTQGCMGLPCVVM
Chain of GDP-bound KRAS wild-type protein (P01116 whole entry): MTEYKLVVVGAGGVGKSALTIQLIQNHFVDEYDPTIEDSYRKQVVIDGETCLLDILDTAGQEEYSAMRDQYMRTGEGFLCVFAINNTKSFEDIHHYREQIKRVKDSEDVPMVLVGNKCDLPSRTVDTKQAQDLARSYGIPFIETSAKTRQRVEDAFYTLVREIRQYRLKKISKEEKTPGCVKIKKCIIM
Chain of GDP-bound HRAS wild-type protein (P01112 whole entry): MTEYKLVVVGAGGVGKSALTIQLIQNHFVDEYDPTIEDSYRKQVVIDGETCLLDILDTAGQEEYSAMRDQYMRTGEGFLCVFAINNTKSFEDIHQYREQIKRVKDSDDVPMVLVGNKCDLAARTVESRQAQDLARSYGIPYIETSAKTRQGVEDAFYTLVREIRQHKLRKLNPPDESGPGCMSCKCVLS

Row | Compound | Kd [1, 5] [nM] | HRAS/KRAS (ratio of KD value for HRAS to KD value for KRAS) ([2]; SPR, KD ratio class) | IC50 [3] [nM] | NRAS/KRAS (ratio of KD value for NRAS to KD value for KRAS) ([4]; SPR, KD ratio class) | Kd ([1]; SPR, Single Cycle Kinetics) [nM] | HRAS/KRAS (ratio of KD value for HRAS to KD value for KRAS) ([2]; SPR) | NRAS/KRAS (ratio of KD value for NRAS to KD value for KRAS) ([4]; SPR) | also measured
1 | CC[C@H](C)[C@@H]1NC(=O)[C@H](CC)N(C)C(=O)C[C@@H](C(=O)N2CCOCC2)N(C)C(=O)[C@H](C2CCCC2)N(C)C(=O)C2(CCC2)NC(=O)[C@@H]2CCCN2C(=O)[C@H](CCc2cc(F)c(C(F)(F)F)c(F)c2)NC(=O)CN(C)C(=O)[C@H](Cc2ccc(C(F)(F)F)cc2)N2C[C@H](C)[C@H](C)C[C@@H](C2=O)N(C)C(=O)[C@@H]2CCN2C1=O [PP1363] | 0.32 | B (a compound having 3 or more and less than 10 is denoted as B) | 34.7 | A (a compound having 10 or more and less than 20 is denoted as A) |  |  |  | 
2 | CC[C@H](C)[C@@H]1NC(=O)[C@H](CC2CCC2)N(C)C(=O)C[C@@H](C(=O)N2CCOCC2)N(C)C(=O)[C@H](C2CCCC2)N(C)C(=O)C2(CCC2)NC(=O)[C@@H]2CCCN2C(=O)[C@H](CCc2ccc(C(F)(F)F)c(Cl)c2)NC(=O)CN(C)C(=O)[C@H](Cc2ccc(C(F)(F)F)cc2)N2C[C@H](C)CC[C@@H](C2=O)N(C)C(=O)[C@@H]2CCN2C1=O [PP1345] | 0.71 | B (a compound having 3 or more and less than 10 is denoted as B) | 34.8 | A (a compound having 10 or more and less than 20 is denoted as A) |  |  |  | 
3 | CCO[C@@H]1C[C@H]2C(=O)NC3(CCC3)C(=O)N(C)[C@@H](C3CCCC3)C(=O)N(C)[C@H](C(=O)N3CCOCC3)CC(=O)N(C)[C@@H](CC(C)C)C(=O)N[C@@H]([C@@H](C)CC)C(=O)N(C)CC(=O)N(C)[C@H]3CCCCCN(C3=O)[C@@H](Cc3ccc4sccc4c3)C(=O)N(C)CC(=O)N[C@@H](CCc3cc(F)c(C(F)(F)F)c(F)c3)C(=O)N2C1 [PP0920] |  |  | 75.5 |  | 0.29 | B (a compound having 3 or more and less than 10 is denoted as B) | B (a compound having 3 or more and less than 10 is denoted as B) | 
4 | CC[C@H](C)[C@@H]1NC(=O)[C@H](COC)N(C)C(=O)C[C@@H](C(=O)N(C)C)N(C)C(=O)[C@H](C2CCCC2)N(C)C(=O)C2(CC(C)(C)C2)NC(=O)[C@@H]2C[C@@H](OC3CCCC3)CN2C(=O)[C@H](CCc2cc(F)c(C(F)(F)F)c(F)c2)NC(=O)CN(C)C(=O)[C@H](CC2CCCCC2)N2CC/C=C\C[C@@H](C2=O)N(C)C(=O)CN(C2CC2)C1=O [PP2630] |  |  | 190 |  |  |  |  | Kd [1, 6]: 3 nM; HRAS/KRAS (ratio of KD value with respect to GDP-bound HRAS wild-type protein to KD value with respect to KRAS) [2]: B (a compound having 3 or more and less than 10 is denoted as B); NRAS/KRAS (ratio of KD value with respect to GDP-bound NRAS wild-type protein to KD value with respect to KRAS) [4]: A (a compound having 10 or more and less than 20 is denoted as A)
5 | CCO[C@@H]1C[C@H]2C(=O)NC3(CCC3)C(=O)N(C)[C@@H](C3CCCC3)C(=O)N(C)[C@H](C(=O)N(C)C)CC(=O)N(C)[C@@H](CC(C)C)C(=O)N[C@@H]([C@@H](C)CC)C(=O)N(C)CC(=O)N(C)[C@H]3C/C=C\CCN(C3=O)[C@@H](Cc3ccc(C(F)(F)F)cc3)C(=O)N(C)CC(=O)N[C@@H](CCc3cc(F)c(Cl)c(F)c3)C(=O)N2C1 [PP1263] | 0.23 | A (a compound having 10 or more and less than 20 is denoted as A) | 18.9 | A (a compound having 10 or more and less than 20 is denoted as A) |  |  |  | 
6 | CCC[C@H]1C(=O)N[C@@H]([C@@H](C)CC)C(=O)N(C2CC2)CC(=O)N(C)[C@H]2C/C=C\CCN(C2=O)[C@@H](Cc2ccc(C(F)F)cc2)C(=O)N(C)CC(=O)N[C@@H](CCc2cc(F)c(C(F)(F)F)c(F)c2)C(=O)N2C[C@H](OC(C)C)C[C@H]2C(=O)NC2(CC(C)(C)C2)C(=O)N(C)[C@@H](C(CC)CC)C(=O)N(C)[C@H](C(=O)N(C)C)CC(=O)N1C [PP2529] |  |  | 64 |  |  |  |  | Kd [1, 6]: 0.77 nM; HRAS/KRAS (ratio of KD value with respect to GDP-bound HRAS wild-type protein to KD value with respect to KRAS) [2]: A (a compound having 10 or more and less than 20 is denoted as A); NRAS/KRAS (ratio of KD value with respect to GDP-bound NRAS wild-type protein to KD value with respect to KRAS) [4]: AA (a compound having 20 or more is denoted as AA)
7 | CCO[C@@H]1C[C@H]2C(=O)NC3(CC(C)(C)C3)C(=O)N(C)[C@@H](C(CC)CC)C(=O)N(C)[C@H](C(=O)N(C)C)CC(=O)N(C)[C@@H](COC)C(=O)N[C@@H]([C@@H](C)CC)C(=O)N(C)CC(=O)N(C)[C@H]3C/C=C\CCN(C3=O)[C@@H](CC3CCC(F)(F)CC3)C(=O)N(C)CC(=O)N[C@@H](CCc3ccc(C(F)(F)F)c(OC)c3)C(=O)N2C1 [PP2438] |  |  | 41.4 |  | 0.64 | A (a compound having 10 or more and less than 20 is denoted as A) | A (a compound having 10 or more and less than 20 is denoted as A) | 
8 | CC[C@H](C)[C@@H]1NC(=O)[C@H](CC)N(C)C(=O)C[C@@H](C(=O)N(C)C)N(C)C(=O)[C@H](C2CCCC2)N(C)C(=O)C2(CCC2)NC(=O)[C@@H]2C[C@@H](F)CN2C(=O)[C@H](CCc2cc(F)c(C(F)(F)F)c(F)c2)NC(=O)CN(C)C(=O)[C@H](Cc2ccc(C(F)(F)F)cc2)N2CC/C=C\C[C@@H](C2=O)N(C)C(=O)CN(C)C1=O [PP1131, (2S,8S,12R,14S,20S,23S,27S,30S,36S,38Z)-20-cyclopentyl-8-[2-[3,5-difluoro-4-(trifluoromethyl)phenyl]ethyl]-27-ethyl-12-fluoro-N,N,4,19,22,26,32,35-octamethyl-30-[(1S)-1-methylpropyl]-3,6,9,15,18,21,25,28,31,34,42-undecaoxo-2-[[4-(trifluoromethyl)phenyl]methyl]spiro[1,4,7,10,16,19,22,26,29,32,35-undecazatricyclo[34.5.1.0^10,14]dotetracont-38-ene-17,1′-cyclobutane]-23-carboxamide] |  |  | 32 |  | 0.025 | B (a compound having 3 or more and less than 10 is denoted as B) | A (a compound having 10 or more and less than 20 is denoted as A) | 
9 | CCO[C@@H]1C[C@H]2C(=O)NC3(CC(C)(C)C3)C(=O)N(C)[C@@H](C3CCCC3)C(=O)N(C)[C@H](C(=O)N(C)C)CC(=O)N(C)[C@H]3CCCCCc4ccc(cc4)C[C@@H](C(=O)N(C)CC(=O)N[C@@H](CCc4ccc(C(F)(F)F)c(OC)c4)C(=O)N2C1)N1CC/C=C\C[C@@H](C1=O)N(C)C(=O)CN(C1CC1)C(=O)[C@H]([C@@H](C)CC)NC3=O [PP3075] |  |  |  |  | 0.076 | A (a compound having 10 or more and less than 20 is denoted as A) | A (a compound having 10 or more and less than 20 is denoted as A) | ratio of the KD value with respect to GDP-bound HRAS wild-type protein to the KD value with respect to KRAS ([2]; SPR, KD(HRAS)/KD(KRAS)): A (a compound having 10 or more and less than 20 is denoted as A); IC50 ([3]; read-out: NCI-H441 cell proliferation inhibitory activity, 50% proliferation inhibitory concentration (IC50 value), NCI-H441, four days, CellTiter-Glo): 1.1 nM; ratio of the KD value with respect to GDP-bound NRAS wild-type protein to the KD value with respect to KRAS ([4]; SPR, KD(NRAS)/KD(KRAS)): A (a compound having 10 or more and less than 20 is denoted as A)
10 | CCOC[C@H]1C(=O)N[C@@H]([C@@H](C)CC)C(=O)N(C2CC2)CC(=O)N(C)[C@H]2C/C=C\CCN(C2=O)[C@@H](CC2CCCCC2)C(=O)N(C)CC(=O)N[C@@H](CCc2ccc(C(F)(F)F)c(OC)c2)C(=O)N2C[C@@H](C)C[C@H]2C(=O)N(C)C2(CCC2)C(=O)N(C)[C@@H](C2CCCC2)C(=O)N(C)[C@H](C(=O)N(C)C)CC(=O)N1C [PP2373] |  |  | 6.5 |  | 0.66 | A (a compound having 10 or more and less than 20 is denoted as A) | A (a compound having 10 or more and less than 20 is denoted as A) | 
11 | CCO[C@@H]1C[C@H]2C(=O)NC3(CC(C)(C)C3)C(=O)N(C)[C@@H](C3CCCC3)C(=O)N(C)[C@H](C(=O)N(C)C)CC(=O)N(C)[C@@H](CC(C)C)C(=O)N[C@@H]([C@@H](C)CC)C(=O)N(C)CC(=O)N(C)[C@H]3C/C=C\CCN(C3=O)[C@@H](Cc3ccc(C(F)(F)F)cc3)C(=O)N(C)CC(=O)N[C@@H](CCc3ccc(C(F)(F)F)c(OC)c3)C(=O)N2C1 [PP1562] | 0.046 | A (a compound having 10 or more and less than 20 is denoted as A) | 1.7 | A (a compound having 10 or more and less than 20 is denoted as A) |  |  |  | 
12 | CC[C@H](C)[C@@H]1NC(=O)[C@H](CC2CC2)N(C)C(=O)C[C@@H](C)N(C)C(=O)[C@H](C2CCCC2)N(C)C(=O)C2(CCC2)NC(=O)[C@H](CCC(F)F)N(C)C(=O)[C@H](CCc2cc(F)c(C(F)(F)F)c(F)c2)NC(=O)CN(C)C(=O)[C@H](Cc2ccc(C(F)(F)F)cc2)N2CC/C=C\C[C@@H](C2=O)N(C)C(=O)CN(C)C1=O [PP1404] | 4.8 | A (a compound having 10 or more and less than 20 is denoted as A) | 498 | A (a compound having 10 or more and less than 20 is denoted as A) |  |  |  | 
13 | CCO[C@@H]1C[C@H]2C(=O)NC3(CC(C)(C)C3)C(=O)N(C)[C@@H](C(CC)CC)C(=O)N(C)[C@H](C(=O)N3CCCCC3)CC(=O)N(C)[C@@H](COC)C(=O)N[C@@H]([C@@H](C)CC)C(=O)N(C)CC(=O)N(C)[C@H]3C/C=C\CCN(C3=O)[C@@H](Cc3ccc(C(F)(F)F)cc3)C(=O)N(C)CC(=O)N[C@@H](CCc3ccc(Cl)c(Cl)c3)C(=O)N2C1 [PP2610] |  |  | 126 |  |  |  |  | Kd [1, 6]: 1.3 nM; HRAS/KRAS (ratio of KD value with respect to GDP-bound HRAS wild-type protein to KD value with respect to KRAS) [2]: A (a compound having 10 or more and less than 20 is denoted as A); NRAS/KRAS (ratio of KD value with respect to GDP-bound NRAS wild-type protein to KD value with respect to KRAS) [4]: AA (a compound having 20 or more is denoted as AA)

Reference: US20240158446A1, “CYCLIC COMPOUND HAVING SELECTIVE INHIBITORY ACTION ON KRAS OVER HRAS AND NRAS” (CHUGAI SEIYAKU KABUSHIKI KAISHA, priority 2021, published 2024)
